# Legend:
# Akt = Akt levels in PC12 cells (immunoblot); assay type: cell-based; settings: 16 hours
# JNK = JNK activity in vitro; assay type: biochemical; settings: data not shown
# HSP90 [1] = experiment: ATP-Sepharose interaction assay; assay type: binding; settings: purified HSP90 pre-incubated with substance
# Procedure: Bound HSP90 was eluted HSP90 content was determined by immunoblotting.
# ATP-Sepharose Interaction Assays. These were performed essentially as described in (Grenert et al., 1997). […] 25 ul of ATP-sepharose beads were added and the reactions were incubated for 30 min at 30° C. After thorough washing with ice-cold incubation buffer, bound proteins were eluted in sample buffer and HSP90 content was determined by immunoblotting.
# HSP90 [2] = experiment: Compound 6-bead pulldown of purified HSP90; assay type: binding; settings: competing compound at 80 μM
# Procedure: (§1) FIGS. 5B and 5C are photographs of Western blots showing that compound 1 binds HSP90 and causes HSF1-dependent expression of HSP70 and HSP25. A: Wild-type or HSF1 null MEFs were transfected with pGL3B-HSP70, an HSP70 promoter reporter construct, or parental vector (pGL3B), then treated with 40 μM of compound 1 for 24 hours and analyzed for luciferase content as described in Materials and Methods (*=P<0.005 relative to 0 compound 1; **=P<0.005 relative to wild-type MEFs treated with 40 uM compound 1. B: Wild-type or HSF1 null MEFs were treated with increasing concentrations of compound 1 for 24 hours, cells were lysed, normalized for protein content, and analyzed for levels of HSP70, HSP40, and HSP25 as indicated. C: Compound 6-conjugated Sepharose beads were incubated with purified HSP90 for 2 hours, washed, and levels of bound HSP90 were analyzed by immunoblot. Con=Control beads, Alone=Compound 6-beads alone, Comp=[…]+competing compound 1 (at 80 μM). Experiments in Panel A-C were performed three times with identical results.
# Compound 6 was coupled with Affi-Gel 10 beads (BioRad) and used as an affinity reagent in pulldown experiments. Beads were incubated either with whole cell lysates or with purified HSP90, washed extensively, and bound proteins were then eluted and analyzed by SDS-PAGE and immunoblotting. […]
# HSP70 promoter = HSP70 promoter reporter transcriptional assay in MEFs (luciferase); assay type: cell-based, mouse
# Procedure: as §1
# Induction of cell stress results in the interaction of HSP90 with misfolded proteins and disrupts its association with HSF1, allowing it to bind and activate HSP70 and HSP25 promoters (Sanchez-Perez and Perona, 1999). […]
structure (smiles),measurement,setting,value
NS(=O)(=O)c1nn2cc(-c3ccccc3)nc2s1 [Compound 1],phosphorylated Akt (pAkt) levels,Akt,significantly enhanced
same,total Akt levels,Akt,reduced total Akt only slightly
same,effect on JNK activity in vitro,JNK,no effect
same,binding of HSP90 to gATP-Sepharose,HSP90 [1],does not decrease the amount of HSP90 bound to gATP-Sepharose but rather increased their association
same,effect of excess unbound compound on compound 6-bead:HSP90 interaction,HSP90 [2],strongly attenuated
same,transcriptional activity of the HSP70 promoter reporter construct,"HSP70 promoter; MEFs lacking HSF1, 40 μM",remained at baseline
same,transcriptional activity of the HSP70 promoter reporter construct,"HSP70 promoter; wild-type MEFs, 40 μM",strongly induced
